Legend:
lysosome functions = assay: Inhibition of Ab degradation with lysosome inhibitor; assay type: cell-based; details: cells with 10 μg/ml Ab, 2 h at 37° C.
Procedure: In order to confirm that antibodies reached the lysosome were they are degraded, cells were treated or not with bafilomycine A1, a potent inhibitor of lysosome functions. Cells were then incubated with 10 μg/ml of Ab to be tested at 4° C., washed and incubated for 2 h at 37° C. The internalized Ab was detected after cell permeabilisation using a secondary anti-mouse IgG-Alexa 488 Ab.

[1] = test system: MDA-MB-231 (breast adenocarcinoma) cells; assay: ATPlite antiproliferative assay, MDA-MB-231; assay type: cell-based, human; details: 72 h drug treatment
Procedure: A549 (Non Small Cell Lung Cancer—ATCC CCL-185) and MDA-MB-231 (breast adenocarcinoma—ATCC HTB-26) cells were cultured in Minimum Essential Medium Eagle (MEM) with 5% fetal calf serum (FCS) and Dulbecco's modified Eagle Medium (DMEM) with 10% FCS respectively. MCF7 (breast ductal carcinoma—ATCC HTB-22) and SN-12C (kidney carcinoma—ATCC) cells were maintained in RPMI1640 medium (without phenol red for MCF7 cells) containing 10% FCS. All the media were supplemented with fungizone (1.25 μg/mL) and penicillin-streptomycin (100 U/100 μg/mL). Cells were cultured under standard conditions in an incubator at 37° C., 5% CO2 and 95% atmospheric humidity.
Selected drugs were investigated for their antiproliferative activity using an ATPlite proliferation assay (Perkin Elmer, Villebon sur Yvette, France) on a comprehensive panel of 4 cell lines. […] On day 4, cell viability was evaluated by dosing the ATP released by viable cells. The number of viable cells was analyzed in comparison with the number of solvent treated cells. The EC50 values were determined with curve fitting analysis (non linear regression model with a sigmoidal dose response, variable hill slope coefficient), performed with the algorithm provided by the GraphPad Software (GraphPad Software Inc., CA, USA).

Compound | degradation of intracellular Ab (lysosome functions) | EC50 [1]
CO/C1=C\C(C)=C\[C@@H](C)[C@@H](O)[C@@H](C)C/C(C)=C/C=C/[C@H](OC)[C@@H]([C@@H](C)[C@@H](O)[C@H](C)[C@@]2(O)C[C@@H](O)[C@H](C)[C@@H](C(C)C)O2)OC1=O [bafilomycine A1] | prevented the degradation of intracellular Ab | –
methyl (S)-2-((2R,3R)-3-((S)-1-((3R,4S,5S)-4-((S)-2-((S)-2-((3-aminobenzyl)(methyl)amino)-3-methylbutanamido)-N,3-dimethylbutanamido)-3-methoxy-5-methylheptanoyl)pyrrolidin-2-yl)-3-methoxy-2-methylpropanamido)-3-phenylpropanoate, trifluoroacetic acid [Compound 15] | – | 0.17 nM

Reference: US10633448B2, “IGF-1R antibody-drug-conjugate and its use for the treatment of cancer” (PIERRE FABRE MEDICAMENT, priority 2014, dated 2020)
